For 30 molecules, IC50 results are on record in patent publication US20230312587A1, “PTERIDINONE COMPOUNDS AND USES THEREOF” (Vertex Pharmaceutical Incorporated, priority 2018, published 2023).

The experiment has as its system β-catenin-TCF-mediated reporter transcription activity in Colo 205 cells. As to the kind of experiment: Colo 205 reporter assay (TCF/LEF luciferase). The class given is cell-based. The settings on record: Homo sapiens, COLO 205, 5 h, Colo 205 TCF/LEF luciferase reporter, five hours after addition of compound; read-out: TCF reporter Colo205 IC50. In outline: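 Luciferase signal from a TCF/LEF-driven reporter, stably integrated in Colo 205 colon cancer cells, was measured 5 h after compound addition.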
Background: Reporter assays use an easily measured gene product as a stand-in for the process of interest.

As for `Cc1nc(NCc2cnn(CCc3ccc(F)cc3F)c2)nc2c1NC(=O)[C@H](C)N2C` [Compound 106, (7S)-2-(((1-(2,4-difluorophenethyl)-1H-pyrazol-4-yl)methyl)amino)-4,7,8-trimethyl-7,8-dihydropteridin-6(5H)-one], the IC50 – broadly, the concentration needed to halve the response being measured – is under 0.3 µM.
With `Cc1nc(NCc2cnn(CCc3cc(F)cc(F)c3)c2)nc2c1NC(=O)[C@H](C)N2C` [Compound 107, (7S)-2-(((1-(3,5-difluorophenethyl)-1H-pyrazol-4-yl)methyl)amino)-4,7,8-trimethyl-7,8-dihydropteridin-6(5H)-one] the figure was under 0.3 µM; with `CCOc1ccc(CCn2cc(CNc3nc(C)c4c(n3)N(C)[C@@H](C)C(=O)N4)cn2)cc1` [Compound 108, (7S)-2-(((1-(4-ethoxyphenethyl)-1H-pyrazol-4-yl)methyl)amino)-4,7,8-trimethyl-7,8-dihydropteridin-6(5H)-one], 0.3 to 1 µM.
In the case of `C[C@H]1C(=O)Nc2cnc(NCc3cnn(CCOc4ccc(F)cc4)c3)nc2N1C` [Compound 109, (7S)-2-(((1-(2-(4-fluorophenoxy)ethyl)-1H-pyrazol-4-yl)methyl)amino)-7,8-dimethyl-7,8-dihydropteridin-6(5H)-one] it was 1 to 5 µM; in that of `C[C@H]1C(=O)Nc2cnc(NCc3cnn(CCCc4ccc(F)cc4)c3)nc2N1C` [Compound 110, (7S)-2-(((1-(3-(4-fluorophenyl)propyl)-1H-pyrazol-4-yl)methyl)amino)-7,8-dimethyl-7,8-dihydropteridin-6(5H)-one], 0.3 to 1 µM.
With `C[C@H]1C(=O)Nc2cnc(NCc3cnn(CCc4ccc(F)c(F)c4)c3)nc2N1C` [Compound 111, (7S)-2-(((1-(3,4-difluorophenethyl)-1H-pyrazol-4-yl)methyl)amino)-7,8-dimethyl-7,8-dihydropteridin-6(5H)-one], the IC50 is 0.3 to 1 µM.
With `Cc1nc(NCc2cnn(C3CCc4ccc(F)cc43)c2)nc2c1NC(=O)[C@H](C)N2C` (stereo partly drawn) [Compound 117, (7S)-2-(((1-(6-fluoro-2,3-dihydro-1H-inden-1-yl)-1H-pyrazol-4-yl)methyl)amino)-4,7,8-trimethyl-7,8-dihydropteridin-6(5H)-one], the IC50 is under 0.3 µM.
For the molecule `Cc1nc(NCc2cnn(C3CCOCC3)c2)nc2c1NC(=O)[C@H](C)N2C` [Compound 118, (7S)-4,7,8-trimethyl-2-(((1-(tetrahydro-2H-pyran-4-yl)-1H-pyrazol-4-yl)methyl)amino)-7,8-dihydropteridin-6(5H)-one], the IC50 is at least 5 µM.
With `C[C@H]1C(=O)Nc2cnc(NCc3cnn(CCc4ccc(F)cc4F)c3)nc2N1C` [Compound 119, (7S)-2-(((1-(2,4-difluorophenethyl)-1H-pyrazol-4-yl)methyl)amino)-7,8-dimethyl-7,8-dihydropteridin-6(5H)-one] the figure was 1 to 5 µM.
In the case of `C[C@H]1C(=O)Nc2cnc(NCc3cnn(CCc4cc(F)cc(F)c4)c3)nc2N1C` [Compound 120, (7S)-2-(((1-(3,5-difluorophenethyl)-1H-pyrazol-4-yl)methyl)amino)-7,8-dimethyl-7,8-dihydropteridin-6(5H)-one] it was 0.3 to 1 µM.
In the case of `Cc1nc(NCc2cnn(CCc3cc(F)c(F)c(F)c3)c2)nc2c1NC(=O)[C@H](C)N2C` [Compound 123, (7S)-4,7,8-trimethyl-2-(((1-(3,4,5-trifluorophenethyl)-1H-pyrazol-4-yl)methyl)amino)-7,8-dihydropteridin-6(5H)-one] it was under 0.3 µM; in that of `Cc1nc(NCc2cnn(C3CCN(C(=O)c4cc(F)c(F)c(F)c4)CC3)c2)nc2c1NC(=O)[C@H](C)N2C` [Compound 124, (7S)-4,7,8-Trimethyl-2-(((1-(1-(3,4,5-trifluorobenzoyl)piperidin-4-yl)-1H-pyrazol-4-yl)methyl)amino)-7,8-dihydropteridin-6(5H)-one], 0.3 to 1 µM.
With `Cc1nc(NCc2ccc(Nc3cnn(CC(F)(F)F)c3)nc2)nc2c1NC(=O)[C@H](C)N2C` [Compound 126, (7S)-4,7,8-trimethyl-2-(((6-((1-(2,2,2-trifluoroethyl)-1H-pyrazol-4-yl)amino)pyridin-3-yl)methyl)amino)-7,8-dihydropteridin-6(5H)-one], the IC50 fell in the range of 1 to 5 µM.
In the case of `Cc1nc(NCc2cnn([C@@H]3CCN(C4CCC(F)(F)CC4)C3)c2)nc2c1NC(=O)[C@H](C)N2C` [Compound 127, (7S)-2-(((1-((R)-1-(4,4-difluorocyclohexyl)pyrrolidin-3-yl)-1H-pyrazol-4-yl)methyl)amino)-4,7,8-trimethyl-7,8-dihydropteridin-6(5H)-one] it was 0.3 to 1 µM.
On to `Cc1nc(NCc2cnn(Cc3ccc(OC(C)C)nc3)c2)nc2c1N(C)C(=O)[C@H](C)N2C` [Compound 129, (7S)-2-(((1-((6-isopropoxypyridin-3-yl)methyl)-1H-pyrazol-4-yl)methyl)amino)-4,5,7,8-tetramethyl-7,8-dihydropteridin-6(5H)-one], for which the IC50 fell in the range of 0.3 to 1 µM.
With `Cc1nc(NCc2cnn(C3CCN(c4ccc(F)cc4)CC3)c2)nc2c1NC(=O)[C@H](C)N2C` [Compound 130, (7S)-2-(((1-(1-(4-fluorophenyl)piperidin-4-yl)-1H-pyrazol-4-yl)methyl)amino)-4,7,8-trimethyl-7,8-dihydropteridin-6(5H)-one] the figure was at least 5 µM; with `Cc1nc(NCc2cnn(C[C@@H](O)c3ccc(F)cc3)c2)nc2c1NC(=O)[C@H](C)N2C` [Compound 131, (7S)-2-[[1-[(2S)-2-(4-fluorophenyl)-2-hydroxy-ethyl]pyrazol-4-yl]methylamino]-4,7,8-trimethyl-5,7-dihydropteridin-6-one], 1 to 5 µM.
In the case of `Cc1nc(NCc2cnn(C[C@H](O)c3ccc(F)cc3)c2)nc2c1NC(=O)[C@H](C)N2C` [Compound 132, (7S)-2-[[1-[(2R)-2-(4-fluorophenyl)-2-hydroxy-ethyl]pyrazol-4-yl]methylamino]-4,7,8-trimethyl-5,7-dihydropteridin-6-one] it was 0.3 to 1 µM; in that of `Cc1nc(NCc2cnn(CCC3CCCC3)c2)nc2c1NC(=O)[C@H](C)N2C` [Compound 133, (7S)-2-(((1-(2-cyclopentylethyl)-1H-pyrazol-4-yl)methyl)amino)-4,7,8-trimethyl-7,8-dihydropteridin-6(5H)-one], under 0.3 µM; in that of `Cc1nc(NCc2cnn(CC3CC4CCC3C4)c2)nc2c1NC(=O)[C@H](C)N2C` (stereo partly drawn) [Compound 134, (7S)-2-(((1-(bicyclo[2.2.1]heptan-2-ylmethyl)-1H-pyrazol-4-yl)methyl)amino)-4,7,8-trimethyl-7,8-dihydropteridin-6(5H)-one], under 0.3 µM.
Take `Cc1nc(NCc2cnn(C3CCC(c4ccc(F)cc4)C3)c2)nc2c1NC(=O)[C@H](C)N2C` (stereo partly drawn) [Compound 137, (7S)-2-(((1-(3-(4-fluorophenyl)cyclopentyl)-1H-pyrazol-4-yl)methyl)amino)-4,7,8-trimethyl-7,8-dihydropteridin-6(5H)-one]: the IC50 is under 0.3 µM.
In the case of `Cc1nc(NCc2cnn(Cc3ccc(F)c(F)c3)c2)nc2c1NC(=O)[C@H](C)N2C` [Compound 140, (7S)-2-(((1-(3,4-difluorobenzyl)-1H-pyrazol-4-yl)methyl)amino)-4,7,8-trimethyl-7,8-dihydropteridin-6(5H)-one] it was under 0.3 µM; in that of `C[C@H]1C(=O)Nc2cnc(NCc3cnn(Cc4ccc(F)c(F)c4)c3)nc2N1C` [Compound 141, (7S)-2-(((1-(3,4-difluorobenzyl)-1H-pyrazol-4-yl)methyl)amino)-7,8-dimethyl-7,8-dihydropteridin-6(5H)-one], under 0.3 µM.
In the case of `COc1ccc(Cn2cc(CNc3nc(C)c4c(n3)N(C)[C@@H](C)C(=O)N4)cn2)cc1F` [Compound 146, (7S)-2-(((1-(3-fluoro-4-methoxybenzyl)-1H-pyrazol-4-yl)methyl)amino)-4,7,8-trimethyl-7,8-dihydropteridin-6(5H)-one], the IC50 is under 0.3 µM.
In the case of `C[C@H]1C(=O)Nc2cnc(NCc3cnn(Cc4ccc(C(F)(F)F)cc4)c3)nc2N1C` [Compound 147, (7S)-7,8-dimethyl-2-(((1-(4-(trifluoromethyl)benzyl)-1H-pyrazol-4-yl)methyl)amino)-7,8-dihydropteridin-6(5H)-one] it was under 0.3 µM.
In the case of `COc1ccc(Cn2cc(CNc3ncc4c(n3)N(C)[C@@H](C)C(=O)N4)cn2)cc1F` [Compound 148, (7S)-2-(((1-(3-fluoro-4-methoxybenzyl)-1H-pyrazol-4-yl)methyl)amino)-7,8-dimethyl-7,8-dihydropteridin-6(5H)-one] it was 0.3 to 1 µM; in that of `Cc1nc(NCc2cnn([C@@H]3C[C@@H]3c3ccc(F)cc3)c2)nc2c1N(C)C(=O)[C@H](C)N2C` [Compound 152, (7S)-2-(((1-((1R,2R)-2-(4-fluorophenyl)cyclopropyl)-1H-pyrazol-4-yl)methyl)amino)-4,5,7,8-tetramethyl-7,8-dihydropteridin-6(5H)-one], under 0.3 µM; in that of `Cc1nc(NCc2cnn([C@H]3C[C@H]3c3ccc(F)cc3)c2)nc2c1N(C)C(=O)[C@H](C)N2C` [Compound 153, (7S)-2-(((1-((1S,2S)-2-(4-fluorophenyl)cyclopropyl)-1H-pyrazol-4-yl)methyl)amino)-4,5,7,8-tetramethyl-7,8-dihydropteridin-6(5H)-one], under 0.3 µM.
As to `CCc1noc(C)c1Cn1cc(CNc2nc(C)c3c(n2)N(C)[C@@H](C)C(=O)N3)cn1` [Compound 158, (7S)-2-(((1-((3-ethyl-5-methylisoxazol-4-yl)methyl)-1H-pyrazol-4-yl)methyl)amino)-4,7,8-trimethyl-7,8-dihydropteridin-6(5H)-one], the IC50 is under 0.3 µM.
In the case of `Cc1nc(NCc2cnn(Cc3cn(C)nc3C(F)(F)F)c2)nc2c1NC(=O)[C@H](C)N2C` [Compound 159, (7S)-4,7,8-trimethyl-2-(((1-((1-methyl-3-(trifluoromethyl)-1H-pyrazol-4-yl)methyl)-1H-pyrazol-4-yl)methyl)amino)-7,8-dihydropteridin-6(5H)-one] it was 0.3 to 1 µM.
